According to the supplement of paper PMC10307832:

What was measured:
Experiment in all cases: relative viability (nuclei count vs DMSO), 5 days (fraction); higher = more cells survive
Bortezomib + Foretinib = compound: CC(C)C[C@H](NC(=O)[C@H](Cc1ccccc1)NC(=O)c1cnccn1)B(O)O [Bortezomib] + COc1cc2c(Oc3ccc(NC(=O)C4(C(=O)Nc5ccc(F)cc5)CC4)cc3F)ccnc2cc1OCCCN1CCOCC1 [Foretinib] (partner 0.25 µM)
Summary of the method: (§1)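 The day after seeding in 1536-well plates, lung cancer cell lines were treated by pin tool with a single drug, or with a fixed anchor-drug dose together with five library-drug doses (not always all listed) in √10 steps. After 5 days, a combined fix-and-stain solution (final 0.05% Triton X-100, 1% formaldehyde, 1 ug/ml Hoechst) was added. Nuclei counted on 4× images gave relative viability as treated counts over vehicle counts, reported as the median of duplicate plates.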

[1] = compound: CC1=CC(=NN1)NC2=CC(=NC(=N2)/C=C/C3=CC=CC=C3)N4CCN(CC4)C + CCNC(=O)c1noc(-c2cc(C(C)C)c(O)cc2O)c1-c1ccc(CN2CCOCC2)cc1 [Luminespib] (partner 0.01 µM)
Summary of the method: as §1

[2] = compound: CC1=CC(=NN1)NC2=CC(=NC(=N2)/C=C/C3=CC=CC=C3)N4CCN(CC4)C + Cc1nc(NC(=O)N2CCC[C@H]2C(N)=O)sc1-c1ccnc(C(C)(C)C(F)(F)F)c1 [Alpelisib] (partner 2 µM)
Summary of the method: as §1

Bortezomib + Crizotinib = compound: CC(C)C[C@H](NC(=O)[C@H](Cc1ccccc1)NC(=O)c1cnccn1)B(O)O [Bortezomib] + C[C@@H](Oc1cc(-c2cnn(C3CCNCC3)c2)cnc1N)c1c(Cl)ccc(F)c1Cl [Crizotinib] (partner 1 µM)
Summary of the method: as §1

| Cell Line | relative viability (Bortezomib + Foretinib; first compound 0.0002 µM) | relative viability (Bortezomib + Foretinib; first compound 0.000632 µM) | relative viability (Bortezomib + Foretinib; first compound 0.002 µM) | relative viability (Bortezomib + Foretinib; first compound 0.006325 µM) | relative viability (Bortezomib + Foretinib; first compound 0.02 µM) | relative viability ([1]; first compound 0.08 µM) | relative viability ([1]; first compound 0.253 µM) | relative viability ([1]; first compound 0.8 µM) | relative viability ([1]; first compound 2.53 µM) | relative viability ([1]; first compound 8 µM) | relative viability ([2]; first compound 0.08 µM) | relative viability ([2]; first compound 0.253 µM) | relative viability ([2]; first compound 0.8 µM) | relative viability ([2]; first compound 2.53 µM) | relative viability ([2]; first compound 8 µM) | relative viability (Bortezomib + Crizotinib; first compound 0.0002 µM) | relative viability (Bortezomib + Crizotinib; first compound 0.000632 µM) | relative viability (Bortezomib + Crizotinib; first compound 0.002 µM) | relative viability (Bortezomib + Crizotinib; first compound 0.006325 µM) | relative viability (Bortezomib + Crizotinib; first compound 0.02 µM) |
| --- | --- | --- | --- | --- | --- | --- | --- | --- | --- | --- | --- | --- | --- | --- | --- | --- | --- | --- | --- | --- |
| 201T | 1.05 | 1.11 | 0.793 | 0.297 | 0.172 | 1.01 | 1.04 | 1.01 | 0.947 | 0.266 | 1.04 | 1.08 | 1.01 | 0.931 | 0.793 | 0.999 | 1.07 | 1.02 | 1.02 | 0.32 |
| A549 | 0.87 | 1.01 | 0.986 | 0.0286 | 0.0217 | – | – | – | – | – | 0.685 | 0.684 | 0.398 | 0.0413 | 0.0242 | 0.767 | 0.631 | 0.789 | 0.0392 | 0.0432 |
| A-427 | 1.02 | 1.1 | 0.932 | 0.483 | 0.122 | 0.775 | 0.984 | 0.873 | 0.361 | 0.105 | 1.08 | 1.15 | 1.07 | 0.716 | 0.133 | 0.867 | 0.859 | 0.866 | 0.521 | 0.0943 |
| ABC-1 | 0.917 | 0.874 | 0.284 | 0.229 | 0.204 | 0.497 | 0.51 | 0.961 | 0.701 | 0.19 | 1.01 | 1.09 | 1.02 | 0.855 | 0.22 | 1.1 | 0.693 | 0.22 | 0.178 | 0.195 |
| BEN | 0.494 | 0.866 | 0.769 | 0.572 | 0.356 | 0.634 | 0.207 | 0.22 | 0.217 | 0.137 | 1.06 | 1.1 | 0.986 | 0.865 | 0.186 | 0.78 | 0.821 | 0.58 | 0.447 | 0.134 |
| CAL-12T | 1.18 | 1.07 | 1.08 | 0.743 | 0.154 | 0.429 | 0.512 | 0.356 | 0.123 | 0.074 | 1.04 | 1.21 | 1.24 | 0.339 | 0.121 | 0.888 | 0.551 | 0.61 | 0.241 | 0.1 |
| COR-L23 | 0.934 | 0.931 | 0.874 | 0.0924 | 0.0681 | 0.723 | 0.813 | 0.593 | 0.398 | 0.0972 | 0.751 | 0.722 | 0.57 | 0.178 | 0.0573 | 0.669 | 0.581 | 0.595 | 0.0447 | 0.0472 |
| COR-L 105 | 0.997 | 1 | 0.995 | 0.262 | 0.255 | 0.553 | 0.784 | 0.736 | 0.654 | 0.197 | 0.946 | 1.08 | 0.967 | 0.605 | 0.186 | 0.673 | 0.741 | 0.577 | 0.206 | 0.215 |
| Calu-6 | 0.803 | 0.856 | 0.839 | 0.0564 | 0.0507 | – | – | – | – | – | 1.01 | 0.973 | 0.661 | 0.134 | 0.117 | 0.712 | 0.777 | 0.81 | 0.105 | 0.0708 |
| ChaGo-K-1 | 0.837 | 0.822 | 0.992 | 0.245 | 0.185 | 0.644 | 0.613 | 0.629 | 0.384 | 0.159 | – | – | – | – | – | – | – | 1.11 | 0.304 | 0.236 |
| EBC-1 | 0.11 | 0.106 | 0.0957 | 0.0676 | 0.0605 | – | – | – | – | – | 0.83 | 0.87 | 0.788 | 0.183 | 0.128 | 0.172 | 0.172 | 0.162 | 0.106 | 0.0978 |
| EKVX | 0.847 | 0.843 | 0.897 | 0.872 | 0.21 | 0.852 | 0.981 | 0.984 | 0.758 | 0.261 | 0.856 | 1.09 | 0.941 | 0.675 | 0.167 | 0.942 | 0.894 | 0.822 | 0.268 | 0.106 |
| EMC-BAC-2 | 0.993 | 1.03 | 1.13 | 0.279 | 0.203 | 1.2 | 1.21 | 1.15 | 0.733 | 0.271 | 0.748 | 0.717 | 0.662 | 0.521 | 0.154 | 0.71 | 0.692 | 0.766 | 0.199 | 0.113 |
| EPLC-272H | 0.7 | 0.506 | 0.148 | 0.0867 | 0.0676 | 0.456 | 0.458 | 0.149 | 0.11 | 0.0775 | 0.901 | 1.07 | 0.79 | 0.513 | 0.244 | – | – | 0.972 | 0.584 | 0.07 |
| H3255 | 0.763 | 0.994 | 0.935 | 0.638 | 0.283 | 1.03 | 0.991 | 0.892 | 0.771 | 0.559 | 0.753 | 0.735 | 0.772 | 0.593 | 0.182 | 0.734 | 0.914 | 0.452 | 0.195 | 0.208 |
| HARA | 0.851 | 0.866 | 0.928 | 0.0716 | 0.0683 | 0.699 | 0.791 | 0.348 | 0.139 | 0.043 | 0.858 | 0.85 | 0.974 | 0.121 | 0.0791 | 0.961 | 0.966 | 0.789 | 0.0536 | 0.067 |
| HCC-15 | 0.933 | 1.09 | 0.628 | 0.0908 | 0.0905 | 0.497 | 0.349 | 0.444 | 0.237 | 0.108 | 0.856 | 1.03 | 0.828 | 0.494 | 0.0833 | 0.784 | 0.825 | 0.904 | 0.46 | 0.0815 |
